# In US12421211B2, “Heterocyclic compounds” (Hoffmann-La Roche Inc., priority 2021, dated 2025):
# Counter-ions that a name gives are not always drawn.
# Tested on: Acinetobacter baumannii ATCC17961
# Experiment: Antimicrobial susceptibility testing: 90% growth inhibitory concentration (IC90) determination
# Type: cell-based
# Details: Acinetobacter baumannii, ATCC17961, 16 h, 90% growth inhibitory concentration, Acinetobacter baumannii ATCC17961, Iso-Sensitest broth, OD 600 nm over 16 h; read-out: ATCC 17961 IC90
# Procedure, shortened: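 A. baumannii ATCC17961 at ~5×10^5 CFU/ml in Iso-Sensitest broth exposed to 10-point twofold dilutions (e.g. 50–0.097 μM final), 35±2° C. OD600 read every 20 minutes over 16h; IC50 and IC90 derived from inhibition during logarithmic growth.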
row,IC90 [nM],SMILES
1,950,"Cn1c(-c2ccc(-c3cn(CCOC(F)F)nc3C(F)(F)F)c(F)c2F)cnc1C(=O)Nc1ccc(C(=O)N2CCN(C(=O)C3CCNCC3)CC2)c(Cl)c1 [Example E6, N-[3-chloro-4-[4-(piperidine-4-carbonyl)piperazine-1-carbonyl]phenyl]-5-[4-[1-[2-(difluoromethoxy)ethyl]-3-(trifluoromethyl)pyrazol-4-yl]-2,3-difluoro-phenyl]-1-methyl-imidazole-2-carboxamide; formic acid]"
2,100,"Cc1nn(CC(=O)NC2CCC(F)(F)CC2)cc1-c1ccc(-c2cnc(C(=O)Nc3ccc(C(=O)N4CCN(C(=O)C5CC[N+](C)(C)CC5)CC4)c(Cl)c3)n2C)c(F)c1F [Example G26, N-[3-chloro-4-[4-(1,1-dimethylpiperidin-1-ium-4-carbonyl)piperazine-1-carbonyl]phenyl]-5-[4-[1-[2-[(4,4-difluorocyclohexyl)amino]-2-oxo-ethyl]-3-methyl-pyrazol-4-yl]-2,3-difluoro-phenyl]-1-methyl-imidazole-2-carboxamide; formate]"
3,1000,"Cc1nn(CC(=O)Nc2ccc(C(=O)N3CC[N+](C)(C)CC3)cc2)cc1-c1ccc(-c2cnc(C(=O)Nc3ccc(C(=O)N4CCN(C(=O)C5CC[N+](C)(C)CC5)CC4)c(Cl)c3)n2C)c(F)c1F [Example G30, N-[3-chloro-4-[4-(1,1-dimethylpiperidin-1-ium-4-carbonyl)piperazine-1-carbonyl]phenyl]-5-[4-[1-[2-[4-(4,4-dimethylpiperazin-4-ium-1-carbonyl)anilino]-2-oxo-ethyl]-3-methyl-pyrazol-4-yl]-2,3-difluoro-phenyl]-1-methyl-imidazole-2-carboxamide; diformate]"
4,760,"COCCCn1cc(-c2ccc(-c3cnc(C(=O)Nc4ccc(C(=O)N5CCN(C(=O)C6CC[N+](C)(C)CC6)CC5)c(Cl)c4)n3C)c(F)c2F)c(C(F)(F)F)n1 [Example F38, N-[3-chloro-4-[4-(1,1-dimethylpiperidin-1-ium-4-carbonyl)piperazine-1-carbonyl]phenyl]-5-[2,3-difluoro-4-[1-(3-methoxypropyl)-3-(trifluoromethyl)pyrazol-4-yl]phenyl]-1-methyl-imidazole-2-carboxamide; formate]"
5,270,"Cn1c(-c2ccc(-c3cnn4c3CCC4)c(F)c2F)cnc1C(=O)Nc1ccc(C(=O)N2CCN(C(=O)C3CC[N+](C)(C)CC3)CC2)c(Cl)c1 [Example F28, N-[3-chloro-4-[4-(1,1-dimethylpiperidin-1-ium-4-carbonyl)piperazine-1-carbonyl]phenyl]-5-[4-(5,6-dihydro-4H-pyrrolo[1,2-b]pyrazol-3-yl)-2,3-difluoro-phenyl]-1-methyl-imidazole-2-carboxamide; formate]"
6,210,"Cc1nn(CC(=O)NC2CCCCC2)cc1-c1ccc(-c2cnc(C(=O)Nc3ccc(C(=O)N4CCN(C(=O)C5CC[N+](C)(C)CC5)CC4)c(Cl)c3)n2C)c(F)c1F [Example G9, N-[3-chloro-4-[4-(1,1-dimethylpiperidin-1-ium-4-carbonyl)piperazine-1-carbonyl]phenyl]-5-[4-[1-[2-(cyclohexylamino)-2-oxo-ethyl]-3-methyl-pyrazol-4-yl]-2,3-difluoro-phenyl]-1-methyl-imidazole-2-carboxamide; formate]"
7,820,"Cn1c(-c2ccc(-c3cn[nH]c3)nc2F)cnc1C(=O)Nc1ccc(C(=O)N2CCN(C(=O)C3CCNCC3)CC2)c(Cl)c1 [Example E18, N-[3-chloro-4-[4-(piperidine-4-carbonyl)piperazine-1-carbonyl]phenyl]-5-[2-fluoro-6-(1H-pyrazol-4-yl)-3-pyridyl]-1-methyl-imidazole-2-carboxamide]"
8,590,"CCc1nn(CCOC)cc1-c1ccc(-c2cnc(C(=O)Nc3ccc(C(=O)N4CCN(C(=O)CC5(O)CC[N+](C)(C)CC5)CC4)c(Cl)c3)n2C)c(F)c1F [Example F24, N-[3-chloro-4-[4-[2-(4-hydroxy-1,1-dimethyl-piperidin-1-ium-4-yl)acetyl]piperazine-1-carbonyl]phenyl]-5-[4-[3-ethyl-1-(2-methoxyethyl)pyrazol-4-yl]-2,3-difluoro-phenyl]-1-methyl-imidazole-2-carboxamide; formate]"
9,310,"COCCn1ncc(-c2ccc(-c3cnc(C(=O)Nc4ccc(C(=O)N5CCN(C(=O)CCCC(=O)N6CC[N+](CC(=O)O)(CC7CNC7)CC6)CC5)c(Cl)c4)n3C)c(F)c2F)c1C [Example P6, 2-[1-(azetidin-3-ylmethyl)-4-[5-[4-[2-chloro-4-[[5-[2,3-difluoro-4-[1-(2-methoxyethyl)-5-methyl-pyrazol-4-yl]phenyl]-1-methyl-imidazole-2-carbonyl]amino]benzoyl]piperazino]-5-keto-pentanoyl]piperazin-1-ium-1-yl]acetic acid; 1:1 formate]"
10,470,"Cn1c(-c2ccc(-c3c[nH]nc3-c3cn[nH]c3)c(F)c2F)cnc1C(=O)Nc1ccc(C(=O)N2CCN(C(=O)C3CC[N+](C)(C)CC3)CC2)c(Cl)c1 [Example F48, N-[3-chloro-4-[4-(1,1-dimethylpiperidin-1-ium-4-carbonyl)piperazine-1-carbonyl]phenyl]-5-[2,3-difluoro-4-[3-(1H-pyrazol-4-yl)-1H-pyrazol-4-yl]phenyl]-1-methyl-imidazole-2-carboxamide; formate]"
11,530,"Cn1cc(-c2ccc(-c3cnc(C(=O)Nc4ccc(C(=O)N5CCN(C(=O)C6CCNCC6)CC5)c(Cl)c4)n3C)c(F)c2F)cn1 [Example E20, N-[3-chloro-4-[4-(piperidine-4-carbonyl)piperazine-1-carbonyl]phenyl]-5-[2,3-difluoro-4-(1-methyl-pyrazol-4-yl)phenyl]-1-methyl-imidazole-2-carboxamide]"

# The next lines start with the molecule.
row,SMILES,IC90 [nM]
1,"COCCn1cc(-c2ccc(-c3cnc(C(=O)Nc4ccc(C(=O)N5CCN(C(=O)CC6(O)CC[N+](C)(C)CC6)CC5)c(Cl)c4)n3C)c(F)c2F)c(C)n1 [Example D17, N-[3-chloro-4-[4-[2-(4-hydroxy-1,1-dimethyl-piperidin-1-ium-4-yl)acetyl]piperazine-1-carbonyl]phenyl]-5-[2,3-difluoro-4-[1-(2-methoxyethyl)-3-methyl-pyrazol-4-yl]phenyl]-1-methyl-imidazole-2-carboxamide; formate]",260
2,"COCCn1nc(C)c(-c2ccc(-c3cnc(C(=O)Nc4ccc(C(=O)N5CCN(C(=O)[C@@H]6C[C@@H](O)C[N+]6(C)C)CC5)c(Cl)c4)n3C)c(F)c2F)c1C (racemic) [Example D3, N-[3-chloro-4-[4-[(2S,4R)-4-hydroxy-1,1-dimethyl-pyrrolidin-1-ium-2-carbonyl]piperazine-1-carbonyl]phenyl]-5-[2,3-difluoro-4-[1-(2-methoxyethyl)-3,5-dimethyl-pyrazol-4-yl]phenyl]-1-methyl-imidazole-2-carboxamide; formate]",390
3,"COCCCn1ncc(-c2ccc(-c3cnc(C(=O)Nc4ccc(C(=O)N5CCN(C(=O)[C@@H]6C[C@@H](O)C[N+]6(C)C)CC5)c(Cl)c4)n3C)c(F)c2F)c1C [Example D12, N-[3-chloro-4-[4-[(2S,4R)-4-hydroxy-1,1-dimethyl-pyrrolidin-1-ium-2-carbonyl]piperazine-1-carbonyl]phenyl]-5-[2,3-difluoro-4-[1-(3-methoxypropyl)-5-methyl-pyrazol-4-yl]phenyl]-1-methyl-imidazole-2-carboxamide; formate]",200
4,"COCCn1ncc(-c2ccc(-c3cnc(C(=O)Nc4ccc(C(=O)N5CCN(C(=O)C6CCNC(=O)C6)CC5)c(Cl)c4)n3C)c(F)c2F)c1C (stereo not shown) [Example D27, N-[3-chloro-4-[4-(2-oxopiperidine-4-carbonyl)piperazine-1-carbonyl]phenyl]-5-[2,3-difluoro-4-[1-(2-methoxyethyl)-5-methyl-pyrazol-4-yl]phenyl]-1-methyl-imidazole-2-carboxamide; 2,2,2-trifluoroacetic acid]",230

# Same assay, conditions: Acinetobacter baumannii, ATCC17961, 16 h, read-out: ATCC 17961 IC90
row,SMILES,IC90 [nM]
1,"COCCn1cc(-c2ccc(-c3cnc(C(=O)Nc4ccc(C(=O)N5CCN(C(=O)C6CC[N+](C)(CC(N)=O)CC6)CC5)c(Cl)c4)n3C)c(F)c2F)c(C)n1 (stereo not shown) [Example B1, N-[4-[4-[1-(2-amino-2-oxo-ethyl)-1-methyl-piperidin-1-ium-4-carbonyl]piperazine-1-carbonyl]-3-chloro-phenyl]-5-[2,3-difluoro-4-[1-(2-methoxyethyl)-3-methyl-pyrazol-4-yl]phenyl]-1-methyl-imidazole-2-carboxamide; formate]",190
2,"COCCn1ncc(-c2ccc(-c3cnc(C(=O)Nc4ccc(C(=O)N5CCN(C(=O)CCC[N+](CCCCN)(CCCCN)CC(=O)O)CC5)c(Cl)c4)n3C)c(F)c2F)c1C [Example P2, bis(4-aminobutyl)-(carboxymethyl)-[4-[4-[2-chloro-4-[[5-[2,3-difluoro-4-[1-(2-methoxyethyl)-5-methyl-pyrazol-4-yl]phenyl]-1-methyl-imidazole-2-carbonyl]amino]benzoyl]piperazin-1-yl]-4-oxo-butyl]ammonium; formate]",66
3,"Cc1c(-c2cnc(C(=O)Nc3ccc(C(=O)N4CCN(C(=O)C5CC[N+](CC(=O)O)(CC6CNC6)CC5)CC4)c(Cl)c3)n2C)ccc(-c2cnn(CCOC(F)F)c2C)c1F (stereo not shown) [Example N2, 2-[1-(azetidin-3-ylmethyl)-4-[4-[2-chloro-4-[[5-[4-[1-[2-(difluoromethoxy)ethyl]-5-methyl-pyrazol-4-yl]-3-fluoro-2-methyl-phenyl]-1-methyl-imidazole-2-carbonyl]amino]benzoyl]piperazine-1-carbonyl]piperidin-1-ium-1-yl]acetic acid; formate]",183
4,"COCCn1cc(-c2ccc(-c3cnc(C(=O)Nc4ccc(C(=O)N5CCN(C(=O)C[N+]6(C)CC[C@H](O)C6)CC5)c(Cl)c4)n3C)c(F)c2F)c(C)n1 (stereo partly drawn) [Example C9, N-[3-chloro-4-[4-[2-[(3S)-3-hydroxy-1-methyl-pyrrolidin-1-ium-1-yl]acetyl]piperazine-1-carbonyl]phenyl]-5-[2,3-difluoro-4-[1-(2-methoxyethyl)-3-methyl-pyrazol-4-yl]phenyl]-1-methyl-imidazole-2-carboxamide; formate]",260
